One experiment has as its target T1, TbINO1 (Trypanosoma brucei brucei, UniProt Q5QQ46).
T1 sequence (Q5QQ46 1-528): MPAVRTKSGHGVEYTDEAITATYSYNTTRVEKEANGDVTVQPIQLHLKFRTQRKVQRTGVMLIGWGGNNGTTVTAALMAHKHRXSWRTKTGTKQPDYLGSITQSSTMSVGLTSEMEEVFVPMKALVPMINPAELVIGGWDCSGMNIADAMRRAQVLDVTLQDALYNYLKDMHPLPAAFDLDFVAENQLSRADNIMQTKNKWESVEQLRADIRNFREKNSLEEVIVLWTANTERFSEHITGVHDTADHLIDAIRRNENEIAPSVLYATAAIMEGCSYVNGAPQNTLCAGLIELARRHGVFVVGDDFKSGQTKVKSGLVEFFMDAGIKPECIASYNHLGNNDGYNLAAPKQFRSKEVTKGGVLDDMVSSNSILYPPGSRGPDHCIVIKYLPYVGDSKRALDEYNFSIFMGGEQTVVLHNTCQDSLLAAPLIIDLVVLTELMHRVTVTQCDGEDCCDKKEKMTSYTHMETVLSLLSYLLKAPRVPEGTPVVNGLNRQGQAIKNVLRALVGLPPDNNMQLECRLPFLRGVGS
In words: biochemical. Particulars: for Tb Ino1 Tm Shift [˚C]: Supplementary Table 1, compound 1mM, mean ± SD from Boltzman curve fitting. It is filed as binding.

The next experiment has as its system HeLa cells. In words: cells. Particulars: for viability at 500 µM / CC50: Homo sapiens, HeLa; for viability at 500 µM: 65 h; for CC50: read-out: HeLa ED50; for HeLa Cells Alamar Blue: Supplementary Table 1, compound 0.5 mM, percentage of controls, mean ± SD (n=3) or SE (n=2). The gist of the method:
(§1)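 Seed HeLa/A549 at 2 × 10^4 cells/well in DMEM/10% FCS/2 mM L-Gln; treat ~65 h; add Alamar Blue, 5 h more.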

The test system of the next experiment is A549 cells. As to the kind of experiment: Cytotoxicity against A549 cells, Alamar Blue. It is filed as cell-based. To be noted: Supplementary Table 1, compound 0.5 mM, percentage of controls (n=1); for viability at 500 µM: Homo sapiens, A549, 65 h. The gist of the method:
as §1

[1] abbreviates: read-out: HeLa Cells Alamar Blue.
[2] abbreviates: read-out: HeLa Cells Alamar Blue (% survival).
Setting [3] is: read-out: Tb Ino1 Tm Shift [˚C].

Read-outs that look alike come from different tables or passages of the source.

This note sets out measurements from paper PMC3199943, “Screening the MayBridge Rule of 3 Fragment Library for Compounds That Interact with the Trypanosoma brucei myo-Inositol-3-Phosphate Synthase and/or Show Trypanocidal Activity” (Molecular Biology International, 2011).

Turning to `OCc1c[nH]c2ccccc12` [compound 162, 1H-indol-3-ylmethanol], the ΔTm at 1000 µM on TbINO1 (read-out: TbIno1 Tm shift [°C]) is 2.31 ± 0.06 °C. Besides, the viability at 500 µM in the experiment on HeLa cells (setting [1]) stood at 16.3 ± 10.6%; in the experiment with HeLa cells (setting [2]) it was 16.3 ± 10.6%; in the experiment on A549 cells it was 41.6%. Also, in the experiment with HeLa cells, the CC50 was 103 ± 6 µM.

For `OCc1cccc2[nH]ccc12` [compound 163, 1H-indol-4-ylmethanol], the ΔTm at 1000 µM at TbINO1 (read-out: TbIno1 Tm shift [°C]) was 1.9 ± 0.06 °C. In addition, the viability at 500 µM in the experiment on HeLa cells (setting [1]) came out at 103 ± 8.7%; in the experiment on HeLa cells (setting [2]), 103 ± 8.7%; in the experiment with A549 cells it was 47%. Further, in the experiment with HeLa cells, the CC50 came to 2500 ± 200 µM.

Take `Cc1cc(O)cc(C)c1C#N` [compound 164, 4‐hydroxy‐2,6‐dimethylbenzonitrile]: the ΔTm at 1000 µM on TbINO1 (setting [3]) worked out at 0.26 ± 0.08 °C. Moreover, the viability at 500 µM is 55.8 ± 12.1% in the experiment with HeLa cells (setting [1]) and 90% in the experiment on A549 cells.

`Cc1cccc2c1NCCC2` [compound 166, 8‐methyl‐1,2,3,4‐tetrahydroquinoline]: the ΔTm at 1000 µM on TbINO1 (setting [3]) amounted to 0.06 ± 0.07 °C. Also, the viability at 500 µM was 95.5 ± 1.6% in the experiment on HeLa cells (setting [1]) and 76% with A549 cells.

As to `OCc1ccc2occc2c1` [compound 168, 1‐benzofuran‐5‐ylmethanol], on TbINO1 (setting [3]), the ΔTm at 1000 µM came out at 0.39 ± 0.08 °C. Further, the viability at 500 µM is 120 ± 11.4% in the experiment on HeLa cells (setting [1]) and 75.1% with A549 cells.

In the case of `OCc1nc2ccccc2[nH]1` [compound 169, 1H‐benzimidazol‐2‐ylmethanol], the ΔTm at 1000 µM on TbINO1 (setting [3]) stood at 0.04 ± 0.07 °C. Further, the viability at 500 µM with HeLa cells (setting [1]) worked out at 121 ± 15%; with A549 cells it was 81.7%.

Take `OCc1ccc2[nH]cnc2c1` [compound 170, 1H‐benzimidazol‐5‐ylmethanol]: at TbINO1 (setting [3]), the ΔTm at 1000 µM amounted to 0.15 ± 0.07 °C. Further, the viability at 500 µM in the experiment with HeLa cells (setting [1]) amounted to 98.3 ± 4.2%; in the experiment with A549 cells it was 92%.

For `OCc1ccc2nccn2c1` [compound 171, imidazo[1,2‐a]pyridin‐6‐ylmethanol], the ΔTm at 1000 µM on TbINO1 (setting [3]) was found to be 0.84 ± 0.09 °C. The viability at 500 µM in the experiment on HeLa cells (setting [1]) turned out to be 94.1 ± 15.6%; in the experiment with A549 cells, 99.4%.

On to `OCc1cn2ccccc2n1` [compound 172, imidazo[1,2‐a]pyridin‐2‐ylmethanol], for which the ΔTm at 1000 µM at TbINO1 (setting [3]) was determined as 0.44 ± 0.08 °C. Besides, the viability at 500 µM in the experiment with HeLa cells (setting [1]) stood at 86.6 ± 15.1%; with A549 cells, 97.5%.

`CCc1cccc(C(C)=O)c1` [compound 174, 1‐(3‐ethylphenyl)ethan‐1‐one]: the ΔTm at 1000 µM on TbINO1 (setting [3]) turned out to be 0.8 ± 0.05 °C. The results for the viability at 500 µM in the experiment with HeLa cells (setting [1]) and in the experiment on A549 cells were 100 ± 7.3% and 79.2%, respectively.

For `Nc1ccc2c(c1)C(=O)OC2` [compound 175, 6‐amino‐1,3‐dihydroisobenzofuran‐1‐one], on TbINO1 (setting [3]), the ΔTm at 1000 µM was determined as 0.04 ± 0.08 °C. The figures for the viability at 500 µM with HeLa cells (setting [1]) and in the experiment on A549 cells were 106 ± 17% and 79.5%, respectively.

In the case of `Cc1cccc(C(N)=O)c1C` [compound 176, 2,3‐dimethylbenzamide], the ΔTm at 1000 µM at TbINO1 (setting [3]) came to 0.06 ± 0.07 °C. Further, the viability at 500 µM was 88.2 ± 12.4% with HeLa cells (setting [1]) and 68.7% in the experiment on A549 cells.

On to `CCc1ccc(CNC)cc1` [compound 180, N‐(4‐ethylbenzyl)‐N‐methylamine], for which the ΔTm at 1000 µM at TbINO1 (setting [3]) is 0.14 ± 0.08 °C. Further, the figures for the viability at 500 µM in the experiment with HeLa cells (setting [1]) and in the experiment on A549 cells were 99.8 ± 1.1% and 87%, respectively.

Turning to `Cn1ccc(C(F)(F)F)n1` [compound 181, 1‐methyl‐3‐(trifluoromethyl)‐1H‐pyrazole], the ΔTm at 1000 µM at TbINO1 (setting [3]) is 0.11 ± 0.08 °C. Also, the figures for the viability at 500 µM with HeLa cells (setting [1]) and in the experiment with A549 cells were 115 ± 9.9% and 58.4%, respectively.

On to `O=C1COc2cc(O)ccc21` [compound 182, 6‐hydroxy‐2,3‐dihydrobenzo[b]furan‐3‐one], for which the “Tb Ino1 Tm Shift [˚C]” value at TbINO1 turned out to be 0.92 ± 0.09 °C. Further, the “HeLa Cells Alamar Blue” value in the experiment with HeLa cells is given as 119.6 ± 2.4 percentage of controls. Moreover, the “A549 Cells Alamar Blue” value in the experiment with A549 cells is 65.6 percentage of controls.

`COC(=O)c1ccccc1C` [compound 183, methyl 2‐methylbenzoate]: at TbINO1 (setting [3]), the ΔTm at 1000 µM was 0.14 ± 0.08 °C. For the same compound, the viability at 500 µM in the experiment on HeLa cells (setting [1]) was found to be 114 ± 4.3%; in the experiment on A549 cells, 51%.

Take `CC(=O)c1cc(C)ccc1O` [compound 184, 1‐(2‐hydroxy‐5‐methylphenyl)ethan‐1‐one]: on TbINO1, the “Tb Ino1 Tm Shift [˚C]” value was 0.14 ± 0 °C. The “HeLa Cells Alamar Blue” value in the experiment on HeLa cells is recorded as 91.7 ± 11.6 percentage of controls. In addition, the “A549 Cells Alamar Blue” value with A549 cells is listed as 53.1 percentage of controls.

As for `COC(=O)c1cccc(C)c1` [compound 185, methyl 3‐methylbenzoate], the ΔTm at 1000 µM on TbINO1 (setting [3]) was 0.14 ± 0.09 °C. The viability at 500 µM was 106 ± 10.4% with HeLa cells (setting [1]) and 61.3% with A549 cells.

On to `OCc1cccc2c1OCC2` [compound 186, 2,3-Dihydrobenzo[b]furan-7-methanol], for which, on TbINO1 (read-out: TbIno1 Tm shift [°C]), the ΔTm at 1000 µM was found to be 4.09 ± 0.09 °C. For the same compound, the viability at 500 µM in the experiment with HeLa cells (setting [1]) was determined as 86.5 ± 14.8%; with HeLa cells (setting [2]), 86.5 ± 14.8%; in the experiment on A549 cells, 41.8%.

On to `CC(=O)NCc1cccnc1` [compound 188, N1‐(3‐pyridylmethyl)acetamide], for which the ΔTm at 1000 µM on TbINO1 (setting [3]) turned out to be 0.05 ± 0.07 °C. The viability at 500 µM was found to be 104 ± 7.3% in the experiment on HeLa cells (setting [1]) and 69.5% in the experiment with A549 cells.

Turning to `N#CCCNCc1ccco1` [compound 189, 3‐[(2‐furylmethyl)amino]propanenitrile], the ΔTm at 1000 µM on TbINO1 (setting [3]) was determined as 0.75 ± 0.08 °C. The figures for the viability at 500 µM with HeLa cells (setting [1]) and in the experiment with A549 cells were 92.5 ± 7.2% and 84.4%, respectively.

Take `Cc1ccc(C(N)=O)c(N)c1` [compound 190, 2-amino-4-methylbenzamide]: the ΔTm at 1000 µM on TbINO1 (read-out: TbIno1 Tm shift [°C]) was 1.52 ± 0.06 °C. Moreover, the viability at 500 µM in the experiment with HeLa cells (setting [1]) was 46.7 ± 23.7%; with HeLa cells (setting [2]), 46.7 ± 23.7%; in the experiment on A549 cells, 106%.

For the compound `Nc1ccc2ncsc2c1` [compound 191, 1,3‐benzothiazol‐6‐amine], the ΔTm at 1000 µM on TbINO1 (setting [3]) was 0.44 ± 0.11 °C. Also, the results for the viability at 500 µM in the experiment on HeLa cells (setting [1]) and in the experiment with A549 cells were 76.3 ± 15.1% and 38%, respectively.

Turning to `Nc1ccc2c(c1)OCCO2` [compound 193, 2,3‐dihydro‐1,4‐benzodioxin‐6‐amine], the ΔTm at 1000 µM on TbINO1 (setting [3]) was 0.4 ± 0.09 °C. Moreover, the viability at 500 µM in the experiment on HeLa cells (setting [1]) was 79.9 ± 13.6%; in the experiment on A549 cells, 44.7%.

As for `COC(=O)c1cccc(N)c1` [compound 194, methyl 3‐aminobenzoate], the ΔTm at 1000 µM at TbINO1 (setting [3]) was 0.78 ± 0.06 °C. Further, the viability at 500 µM in the experiment with HeLa cells (setting [1]) was determined as 88.3 ± 9.2%; in the experiment with A549 cells it was 38.9%.

Take `NC1=CC=C2OCOCC2C1` (stereo not drawn) [compound 195, 4,5‐dihydro‐1,3‐benzodioxine‐6‐amine]: on TbINO1 (setting [3]), the ΔTm at 1000 µM was 1.16 ± 0.06 °C. The viability at 500 µM came out at 77.4 ± 10.5% with HeLa cells (setting [1]) and 54.1% in the experiment on A549 cells.

`Cc1ccc(C(=O)O)c(N)c1` [compound 196, 2‐amino‐4‐methylbenzoic acid]: on TbINO1 (setting [3]), the ΔTm at 1000 µM was found to be 1.1 ± 0.06 °C. Besides, the viability at 500 µM worked out at 97.4 ± 4.1% in the experiment with HeLa cells (setting [1]) and 36.7% in the experiment with A549 cells.

Consider `CC(=O)c1ccc(C#N)s1` [compound 198, 5‐acetylthiophene‐2‐carbonitrile], for which the ΔTm at 1000 µM on TbINO1 (setting [3]) came out at 0.24 ± 0.07 °C. Besides, the viability at 500 µM is 93.3 ± 15.3% with HeLa cells (setting [1]) and 61.2% in the experiment with A549 cells.

On to `O=C(O)Cc1ccccc1O` [compound 201, 2‐(2‐hydroxyphenyl)acetic acid], for which, on TbINO1 (setting [3]), the ΔTm at 1000 µM amounted to 0.65 ± 0.08 °C. The results for the viability at 500 µM with HeLa cells (setting [1]) and in the experiment with A549 cells were 94.1 ± 15.7% and 94.2%, respectively.

For the compound `O=C(O)C(O)c1ccccc1` (stereo not drawn) [compound 202, 2‐hydroxy‐2‐phenylacetic acid], the ΔTm at 1000 µM on TbINO1 (setting [3]) was found to be 0 °C. Besides, the results for the viability at 500 µM in the experiment with HeLa cells (setting [1]) and with A549 cells were 96.7 ± 12.5% and 55.6%, respectively.

As to `OCc1cccc2c1OCO2` [compound 203, 1,3‐benzodioxol‐4‐ylmethanol], on TbINO1 (setting [3]), the ΔTm at 1000 µM was found to be 0.06 ± 0.08 °C. In addition, the viability at 500 µM is 94.6 ± 14.1% with HeLa cells (setting [1]) and 60.8% in the experiment with A549 cells.
